In patent US4623645A, “Substituted cephalosporin sulfoxides as anti-inflammatory and antidegenerative agents” (Merck & Co., Inc., priority 1983, dated 1986):

Target: T1, Human Polymorphonuclear Leukocyte Elastase (Homo sapiens, UniProt P08246)
T1 sequence (P08246 30-247 limits assumed): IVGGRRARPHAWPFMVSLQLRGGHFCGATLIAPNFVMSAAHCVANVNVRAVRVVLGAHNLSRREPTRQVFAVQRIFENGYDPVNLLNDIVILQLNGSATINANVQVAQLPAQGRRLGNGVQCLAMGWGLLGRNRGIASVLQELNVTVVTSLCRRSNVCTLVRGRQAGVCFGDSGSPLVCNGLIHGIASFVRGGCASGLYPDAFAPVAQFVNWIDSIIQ
Experiment: Inhibition of human polymorphonuclear leukocyte elastase via hydrolysis of N-t-Boc-alanyl-alanyl-prolyl-alanine-p-nitroanilide (Boc-AAPAN)
Assay type: biochemical
Settings: 50% inhibition of the enzyme activity 2 minutes after zero time; crude human PMN extract, 0.2 mM Boc-AAPAN, pH 7.5; read-out: ED50 (the source's name) (converted)

| IC50 [µM] | SMILES |
| --- | --- |
| 5.76 | CC(=O)OCC1=C(C(=O)OC(C)(C)C)N2C(=O)[C@H](F)[C@H]2[S+]([O-])C1 (stereo partly drawn) [F / OtBu / H, t-Butyl 3-acetyloxymethyl-7α-fluoro-8-oxo-5-thia-1-azabicyclo[4.2.0]oct-2-ene-2-carboxylate-5-oxide] |
| 7.63 | CO[C@H]1C(=O)N2C(C(=O)OCc3ccccc3)=C(COC(C)=O)C[S+]([O-])[C@H]12 (stereo partly drawn) [OCH3 / OCH2 .phi. / H, Benzyl 3-acetyloxymethyl-7α-methoxy-8-oxo-5-thia-1-azabicyclo[4.2.0]oct-2-ene-2-carboxylate-5-oxide] |
| 25.2 | COC(=O)C1=C(COC(C)=O)C[S+]([O-])C2C(OC)C(=O)N12 (stereo not shown) [OCH3 / OCH3 / H] |
| 5.02 | CC(=O)OCC1=C(C(=O)OC(C)(C)C)N2C(=O)C(Cl)(Cl)C2[S+]([O-])C1 (stereo not shown) [7,7-dichloro / OtBu / H] |
